The source of these data is patent US6753331B1, “Heterocyclic derivatives which inhibit factor Xa” (AstraZeneca AB, priority 1998, dated 2004).

Test system in one series: not given
Assay: not given
Conditions: not given
For orientation: melting point means the temperature, or range, at which the solid turns liquid. In turn, `O=C(c1ccc(-n2ccnc2)cc1)N1CCN(S(=O)(=O)c2cc3cc(Cl)ccc3[nH]2)CC1` [Example 6, 1-(5-Chloroindol-2-ylsulphonyl)-4-[4-(1-imidazolyl)benzoyl]piperazine] came in with a melting point of 155 to 165 °C.

The molecule `O=C(c1ccc(-c2ccncc2)cc1)N1CCN(S(=O)(=O)c2nc3ccc(Cl)cc3[nH]2)CC1` [Example 8, 1-(5-chlorobenzimidazol-2-ylsulphonyl)-4-[4-(4-pyridyl)benzoyl]piperazine] yielded a melting point of 242 to 244 °C.

With `O=C(c1ccc(-c2ccncn2)cc1)N1CCN(S(=O)(=O)c2cc3cc(Cl)ccc3[nH]2)CC1` [Example 4, 1-(5-Chloroindol-2-ylsulphonyl)-4-[4-(4-pyrimidyl)benzoyl]piperazine], the melting point fell in the range of 229 to 230 °C.

For `O=C(c1ccc(-c2ccncc2)cc1)N1CCN(S(=O)(=O)c2cc3cc(Cl)ccc3[nH]2)CC1` [Example 3, 1-(5-chloroindol-2-ylsulphonyl)-4-[4-(4-pyridyl)benzoyl]piperazine], the melting point was 185 to 188 °C.

In turn, `O=C(c1ccc(-c2ccncc2)cc1)N1CCN(S(=O)(=O)c2cc3ccc(Cl)cc3[nH]2)CC1` [Example 7, 1-(6-chloroindol-2-ylsulphonyl)-4-[4-(4-pyridyl)benzoyl]piperazine] registered a melting point of 231 to 234 °C.

`O=C(c1ccc(-c2ccnnc2)cc1)N1CCN(S(=O)(=O)c2cc3cc(Cl)ccc3[nH]2)CC1` [Example 5, 1-(5-Chloroindol-2-ylsulphonyl)-4-[4-(4-pyridazinyl)benzoyl]piperazine] had a melting point of 170 to 172 °C.

Another series has as its system human thrombin. Kind of series: test b) C2 (PT) against human thrombin. To be noted: PT = prothrombin time. In kind it is biochemical. How it is done:
b) Measurement of Thrombin Inhibition
The procedure of method a) is repeated except that human thrombin (0.005 Units/ml) and the chromogenic substrate S-2238 (KabiVitrum AB, 7 μM) are employed.
c) Measurement of Anticoagulant Activity
An in vitro assay whereby human, rat or rabbit venous blood is collected and added directly to a sodium citrate solution (3.2 g/100 ml, 9 parts blood to 1 part citrate solution). Blood plasma is prepared by centrifugation (1000 g, 15 minutes) and stored at 2-4° C. Conventional prothrombin time (PT) tests are carried out in the presence of various concentrations of a test compound and the concentration of test compound required to double the clotting time, hereinafter referred to as CT2, is determined. In the PT test, the test compound and blood plasma are incubated at 37° C. for 10 minutes. Tissue thromboplastin with calcium (Sigma Limited, Poole, England) is added and fibrin formation and the time required for a clot to form are determined.
With `O=C(c1ccc(-c2ccncc2)cc1)N1CCN(S(=O)(=O)c2cc3cc(Cl)ccc3o2)CC1` [Example 1, 1-(5-Chlorobenzo[b]furan-2-ylsulphonyl)-4-[4-(4-pyridyl)benzoyl]piperazine], the “C2 (PT) against human thrombin” value came out at 15 µM.
